# How the values were obtained:
# [1] = Solid stability assay (XRPD, HPLC); assay type: physicochemical
# Protocol: Sample concentration: 0.5 mg/mL
# According to influencing factor and accelerated assay conditions, about 5 mg of the crystal form B of the compound of formula (I) was accurately weighed and placed in a dry and clean glass bottle to form a thin layer as a formal assay sample in duplicate. The sample was placed under an influencing factor assay condition (60° C., 92.5% RH) and accelerated conditions (40° C./75% RH and 60° C./75% RH). The sample was fully exposed, and covered with aluminum foil paper punched with small holes. In addition, a small amount of sample was placed in a 40 mL glass sample bottle under the same conditions to determine the crystal state. The sample placed under light irradiation condition (1.2×10^6 Lux•hr/near ultraviolet 200 w•hr/m^2) was fully exposed at room temperature.
# [2] = tested on: subcutaneous xenograft tumor of human gastric cancer NCI-N87 cells; test: In vivo pharmacodynamics, NCI-N87 subcutaneous xenograft (Assay Example 4); parameters: species or system mouse; settings: 0.5 mg/kg, compared with the vehicle control group
# Protocol: (§1) Purpose of the assay: in vivo efficacy of the assay compound disclosed herein on subcutaneous xenograft tumor of human gastric cancer NCI-N87 cells in a BALB/c nude mouse model was evaluated.
# Animals of the assay: female BALB/c nude mice, 6-8 weeks old, weighted 18-22 grams; supplier: shanghai sippr bk laboratory animals Ltd.
# (§2) Human gastric cancer NCI-N87 cells were cultured in monolayer in vitro. The culture conditions were RPMI-1640 medium plus 10% fetal bovine serum, 100 U/mL penicillin, 100 μg/mL streptomycin, 37° C., 5% CO2. The passaging was performed by conventional digestion with trypsin-EDTA twice a week. When the cell saturation was 80%-90%, the cells were collected, counted and inoculated.
# 0.2 mL (10×10^6) of NCI-N87 cells (PBS+Matrigel, 1:1) were inoculated subcutaneously on the right back of each mouse. […]
# The assay index was to investigate whether tumor growth is inhibited, delayed or cured. Tumor diameter was measured twice a week with a vernier caliper. […]
# The antitumor efficacy of the compounds was evaluated by TGI (%) or tumor proliferation rate T/C (%). […]
# Statistical analysis included the mean and standard error of mean (SEM) of tumor volume at each time point in each group (See Table 14 for specific data). […] The comparison between groups was analyzed by T-test, and the comparison among three or more groups was analyzed by one-way ANOVA. […]
# CYP1A2 = biological target: T1, CYP1A2 (Homo sapiens, UniProt P05177); test: Inhibition of CYP enzyme activity in human liver microsome, CYP1A2; assay type: in vitro ADME; settings: human liver microsome
# T1 construct: in the assay of CYP enzyme activity in human liver microsome; from tissue; host or cells: human liver microsome
# T1 sequence (P05177 1-516): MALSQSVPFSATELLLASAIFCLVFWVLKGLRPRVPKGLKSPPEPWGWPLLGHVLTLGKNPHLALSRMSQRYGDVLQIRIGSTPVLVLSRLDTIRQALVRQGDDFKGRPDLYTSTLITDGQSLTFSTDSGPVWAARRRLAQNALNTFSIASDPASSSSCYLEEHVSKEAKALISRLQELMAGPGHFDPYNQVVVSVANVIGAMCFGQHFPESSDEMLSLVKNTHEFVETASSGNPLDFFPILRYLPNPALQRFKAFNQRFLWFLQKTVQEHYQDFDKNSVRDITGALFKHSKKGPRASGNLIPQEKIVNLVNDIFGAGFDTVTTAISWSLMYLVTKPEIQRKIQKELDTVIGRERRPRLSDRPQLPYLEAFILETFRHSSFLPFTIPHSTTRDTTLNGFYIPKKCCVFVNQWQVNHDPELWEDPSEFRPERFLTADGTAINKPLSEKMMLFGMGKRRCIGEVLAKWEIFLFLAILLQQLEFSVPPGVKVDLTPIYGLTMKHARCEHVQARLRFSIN
# Text: (§3) The results of the compound disclosed herein and the reference compound Poziotinib in the assay of CYP enzyme activity in human liver microsome were shown in the following table (Table 17).
# [3] = tested on: subcutaneous xenograft tumor of human gastric cancer NCI-N87 cells; test: In vivo pharmacodynamics, NCI-N87 subcutaneous xenograft (Assay Example 3); parameters: species or system mouse; settings: 0.8 mg/kg, compared with the vehicle control group
# Protocol: as §1
# Animals of the assay: female BALB/c nude mice, 6-8 weeks old, weighted 18-22 grams; supplier: Shanghai Ling Chang Biotechnology Co., Ltd.
# as §2, with “U/mL streptomycin and 2 mM glutamine,” for “μg/mL streptomycin,”, “by the” for “by”
# 0.2 mL (10×10^6) of NCI-N87 cells (PBS+Matrigel, 1:1) were inoculated subcutaneously on the right back of each nude mouse. When the average tumor volume reached 158 mm^3, administration to each group was started.
# The assay compounds were formulated into 0.04 mg/mL and 0.08 mg/mL clear solution in the solvents of 10% NMP (N-methylpyrrolidone)+10% ethylene glycol stearate+80% water.
# The assay index was to investigate whether tumor growth is inhibited, delayed or cured. Tumor diameter was measured twice a week with a vernier caliper. The calculation formula of tumor volume was: V=0.5a×b^2, wherein a and b represent the long and short diameters of tumor, respectively.
# The antitumor efficacy of the compounds was evaluated by TGI (%) or tumor proliferation rate T/C (%). TGI (%) reflects tumor growth inhibition rate. […]
# Statistical analysis included mean and standard error of mean (SEM) of tumor volume at each time point in each group (See Table 13 for specific data). […] The comparison between groups was analyzed by T-test, and the comparison among three or more groups was analyzed by one-way ANOVA. […]
# [4] = tested on: subcutaneous xenograft tumor of human esophageal carcinoma OE21 cells; test: In vivo pharmacodynamics, OE21 subcutaneous xenograft (Assay Example 5); parameters: species or system mouse
# Protocol: Purpose of the assay: in vivo efficacy of the assay compound on subcutaneous xenograft tumor of human esophageal carcinoma OE21 cells in a BALB/c nude mouse model was evaluated.
# Animals of the assay: female BALB/c nude mice, 6-8 weeks old, weighted 17-23 grams; supplier: shanghai sippr bk laboratory animals Ltd.
# as §2, with “esophageal carcinoma OE21” for “gastric cancer NCI-N87”, “U/mL streptomycin and 2 mM glutamine,” for “μg/mL streptomycin,”
# 0.1 ml […] OE21 cells (PBS) were inoculated subcutaneously on the right back of each mouse. When the average tumor volume reached 112 mm^3, administration to each group was started.
# The assay compound was formulated into a 0.15 mg/mL to 0.3 mg/mL clear or suspension solution in the solvents of 10% NMP+10% ethylene glycol stearate+80% water.
# The assay index was to investigate whether tumor growth is inhibited, delayed or cured. Tumor diameter was measured twice a week with vernier caliper. The calculation formula of tumor volume was: V=0.5a×b^2, wherein a and b represent the long and short diameters of tumor, respectively.
# The antitumor efficacy of the compounds was evaluated by TGI (%) or relative tumor proliferation rate T/C (%). TGI (%) reflects the tumor growth inhibition rate. TGI (%) was calculated as follows: TGI (%)=[(1−average tumor volume at the end of administration for a certain treatment group−average tumor volume at the beginning of administration for this treatment group))/(average tumor volume at the end of treatment for a vehicle control group−average tumor volume at the beginning of administration for this vehicle control group)]×100%.
# Relative tumor proliferation rate T/C (%): the calculation formula was as follows: T/C (%)=average tumor volume at the end of administration for a certain treatment group/average tumor volume at the end of treatment for the vehicle control group×100%.
# Statistical analysis included the mean and standard error of mean (SEM) of tumor volume at each time point in each group. One-way ANOVA was used for comparison among three or more groups. […] SPSS 17.0 was used for all data analysis. p<0.05 was considered a significant difference.
# CYP3A4 = biological target: T2, CYP3A4 (Homo sapiens, UniProt P08684); test: Inhibition of CYP enzyme activity in human liver microsome, CYP3A4; assay type: in vitro ADME
# T2 construct: in the assay of CYP enzyme activity in human liver microsome; from tissue; host or cells: human liver microsome
# T2 sequence (P08684 whole entry): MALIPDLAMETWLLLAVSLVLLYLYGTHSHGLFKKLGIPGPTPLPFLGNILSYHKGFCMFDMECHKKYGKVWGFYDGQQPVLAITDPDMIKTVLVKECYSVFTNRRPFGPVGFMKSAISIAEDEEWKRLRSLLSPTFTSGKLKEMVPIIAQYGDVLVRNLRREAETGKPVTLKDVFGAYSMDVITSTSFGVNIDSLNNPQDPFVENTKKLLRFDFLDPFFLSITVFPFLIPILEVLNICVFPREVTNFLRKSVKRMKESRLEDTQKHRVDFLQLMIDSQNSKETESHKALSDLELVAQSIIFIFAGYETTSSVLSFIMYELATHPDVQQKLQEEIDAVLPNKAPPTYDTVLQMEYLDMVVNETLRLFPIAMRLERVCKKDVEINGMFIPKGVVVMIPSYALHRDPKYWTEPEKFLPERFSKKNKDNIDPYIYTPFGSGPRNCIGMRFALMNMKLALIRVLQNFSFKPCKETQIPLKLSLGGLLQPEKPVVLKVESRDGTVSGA
# Text: as §3
smiles,measurement,setting,value
C=CC(=O)N1[C@@H]2CC[C@H]1C[C@H](Nc1cc3c(Nc4ccc(Cl)c(Cl)c4F)ncnc3cc1OC)C2.O=C(O)/C=C\C(=O)O,Total impurity content,"[1]; 40° C., 75% relative humidity, open, 1 month",1.62%
same,Total impurity content,"[1]; 40° C., 75% relative humidity, open, 2 months",1.52%
same,Total impurity content,"[1]; 40° C., 75% relative humidity, open, 3 months",1.52%
same,Total impurity content,"[1]; 40° C., 75% relative humidity, open, 10 days",1.64%
same,Total impurity content,"[1]; 60° C., 75% relative humidity, open, 1 month",1.62%
same,Total impurity content,"[1]; 60° C., 75% relative humidity, open, 10 days",1.63%
same,Total impurity content,"[1]; High humidity (25° C./92.5% relative humidity, open), 5 days",1.65%
same,Total impurity content,"[1]; High humidity (25° C./92.5% relative humidity, open), 10 days",1.65%
same,Total impurity content,"[1]; High temperature (60° C., open), 5 days",1.64%
same,Total impurity content,"[1]; High temperature (60° C., open), 10 days",1.64%
same,Total impurity content,"[1]; Initial, 0 day",1.64%
same,Total impurity content,"[1]; Light irradiation (1.2 × 10^6 Lux · hr/near ultraviolet 200 w · hr/m^2, open), 10 days",1.66%
same,Total impurity content,"[1]; Protected from light, 10 days",1.64%
same,solid stability (in words),[1]; conclusion over all conditions,good stability
"C=CC(=O)N1CCC(Nc2cc3c(Nc4ccc(F)c(Cl)c4)ncnc3cc2OC)CC1 [Control compound 2, reference compound]",tumor inhibitory effect (in words),[2],not significant
"C=CC(=O)N1CCC(Oc2cc3c(Nc4ccc(Cl)c(Cl)c4F)ncnc3cc2OC)CC1 [Poziotinib, reference compound]",inhibitory activity on CYP1A2 (in words),CYP1A2,no inhibitory activity
same,tumor inhibitory effect (in words),[3],significant tumor inhibitory effect
same,body weight and clinical signs (in words),[4]; 2/1.5 mg/kg,varying degrees of body weight loss and dandruff
same,tumor inhibitory effect (in words),"[4]; 2/1.5 mg/kg, compared with the vehicle control group",significant tumor inhibitory effect
same,Tumor volume (Day 21),"[4]; 2/1.5 mg/kg, Day 21, Mean + SEM",57 ± 7 mm3
same,body weight loss of individual mice (administration discontinued),"[4]; 2/1.5 mg/kg, from the 6th and 7th day, 1 mouse, then 3 mice",more than 15%
same,effect on the body weight of mice (in words),"[4]; discussion, high-dose group",the body weight loss of mice was significant
same,"dark yellow urine, suggestion of toxicity (in words)","[4]; mouse, in vivo",mice in the whole group had dark yellow urine
same,inhibitory activity on CYP3A4 (in words),CYP3A4,no inhibitory activity
